We go through 13 molecules from US20230096766A1, “AMINO ACID HAVING FUNCTIONAL GROUP CAPABLE OF INTERMOLECULAR HYDROGEN BONDING, PEPTIDE COMPOUND CONTAINING SAME AND METHOD FOR PRODUCTION THEREOF” (Chugai Seiyaku Kabushiki Kaisha, priority 2018, published 2023).

*1 amine or outer side, *2 acyl side, *3 side chain or, on linkers, in order; H or OH if unused. Where a SMILES comes first, the peptide text is derived from it. Bridges are numbered along the chain shown (N, C = ends). [ ]: non-standard residue; d: D form. The star is where a group is joined. ξ: configuration not given here. Phe(3-OMe,4-CONHMs) = COc1cc(C[C@H](N)C(=O)O)ccc1C(=O)NS(C)(=O)=O; NMeHph(3-OMe-4-CONHMe) = CNC(=O)c1ccc(CC[C@H](NC)C(=O)O)cc1OC; NMeAbu(3,3-F2-piperidino) = CN[C@@H](CCN1CCCC(F)(F)C1)C(=O)O; Phe(3-CONHMe,4-OMe) = CNC(=O)c1cc(C[C@H](N)C(=O)O)ccc1OC; Phe(3-OMe,4-CONHMe) = CNC(=O)c1ccc(C[C@H](N)C(=O)O)cc1OC; Glu(NHSO2Me) = CS(=O)(=O)NC(=O)CC[C@H](N)C(=O)O; NMePhe(3-Cl) = CN[C@@H](Cc1cccc(Cl)c1)C(=O)O; Tyr(3-F) = N[C@@H](Cc1ccc(O)c(F)c1)C(=O)O; NMeW = CN[C@@H](Cc1c[nH]c2ccccc12)C(=O)O; NMehPhe = CN[C@@H](CCc1ccccc1)C(=O)O; NMeF = CN[C@@H](Cc1ccccc1)C(=O)O; NMeGABA = CN(CCCC(=O)[*:2])[*:1]; NMeI = CC[C@H](C)[C@H](NC)C(=O)O; NMeL = CN[C@@H](CC(C)C)C(=O)O; Propyl(2R-OH) = C[C@@H](O)C*; NMeV = CN[C@H](C(=O)O)C(C)C; NMeAbu = CC[C@H](NC)C(=O)O; NMeA = CN[C@@H](C)C(=O)O; Piperidide = C1CCN(*)CC1; Abu = CC[C@H](N)C(=O)O; NBuGly = CCCCNCC(=O)O; ξL = CC(C)CC(N)C(=O)O; Isopentyl = CC(C)CC*; NPrGly = CCCNCC(=O)O; ξV = CC(C)C(N)C(=O)O; Ethyl(2-OH) = OCC*; Sar = CNCC(=O)O; tBu = CC(C)(C)*

The first series can be described thus: in vitro. The note with it: human, Caco-2, Caco-2.
With `CCCCN1CC(=O)N(C)[C@@H](C(C)C)C(=O)N[C@@H](CC(C)C)C(=O)N(C)[C@@H](Cc2ccccc2)C(=O)N(C)[C@@H](CCN2CCCC(F)(F)C2)C(=O)N[C@H](C(=O)N2CCCCC2)CC(=O)N[C@H](C)C(=O)N(C)[C@@H](Cc2ccccc2)C(=O)N[C@@H](CC(C)C)C(=O)N(C)[C@@H](CC(C)C)C(=O)N[C@@H]([C@@H](C)O)C1=O` [pd388] ([dA][NMeF]L[NMeL]T[NBuGly][NMeV]L[NMeF][NMeAbu(3,3-F2-piperidino)]D-Piperidide; lactam N-11), the apparent permeability coefficient (Papp) is 1.9 ×10⁻⁶ cm/s. Turning to `CCCCN1CC(=O)N(C)[C@@H](Cc2cccc(Cl)c2)C(=O)N[C@@H](CCC(=O)NS(C)(=O)=O)C(=O)N(C)[C@@H](CC(C)C)C(=O)N[C@@H]([C@@H](C)O)C(=O)N(CCCC)CC(=O)N(C)[C@@H](Cc2ccccc2)C(=O)N(C)[C@@H](CC(C)C)C(=O)N[C@@H](CC(C)C)C(=O)N(C)[C@@H](CC(C)C)C(=O)N[C@H](C(=O)N2CCCCC2)CC1=O` [pd66] ([NBuGly][NMePhe(3-Cl)][Glu(NHSO2Me)][NMeL]T[NBuGly][NMeF][NMeL]L[NMeL]D-Piperidide; lactam N-11), the apparent permeability (Papp) was 0.09 ×10⁻⁶ cm/s.

The series is the same for the next values; noted with them: human, Caco-2, Caco-2 (cm/sec).
As for `COc1cc(C[C@@H]2NC(=O)[C@H](C(C)C)N(C)C(=O)[C@H](CC(C)C)N(C)C(=O)C(CC(C)C)NC(=O)[C@H](CC(C)C)N(C)C(=O)[C@H](CC(C)C)N(C)C(=O)[C@H](C)NC(=O)[C@H](CC(C)C)N(C)C(=O)C[C@@H](C(=O)N3CCCCC3)NC(=O)[C@H](CC(C)C)N(C)C(=O)CN(C)C2=O)ccc1C(=O)NS(C)(=O)=O` (stereo partly drawn) [AP142] ([NMeL]A[NMeL][NMeL][ξL][NMeL][NMeV][Phe(3-OMe,4-CONHMs)][Sar][NMeL]D-Piperidide; lactam N-11), the Papp came out at 0.63 ×10⁻⁶ cm/s. On the same count and under the same terms, the figure for `CC(C)C[C@@H]1NC(=O)[C@H](Cc2ccccc2)N(C)C(=O)[C@H](COC(C)(C)C)NC(=O)[C@H](Cc2ccccc2)N(C)C(=O)[C@H](C)N(C)C(=O)[C@H](CC(C)C)N(C)C(=O)[C@@H]2CCCN2C(=O)C[C@@H](C(=O)N2CCCCC2)NC(=O)[C@H](Cc2ccccc2)N(C)C(=O)[C@H]([C@@H](C)O)NC(=O)[C@H](CC(C)C)N(C)C1=O` [pd214] (P[NMeL][NMeA][NMeF]S(tBu)[NMeF]L[NMeL]T[NMeF]D-Piperidide; lactam N-11) is 1.2 ×10⁻⁶ cm/s; for `CC(C)C[C@@H]1NC(=O)[C@H](Cc2ccccc2)N(C)C(=O)C(C(C)C)NC(=O)C[C@@H](C(=O)N2CCCCC2)NC(=O)[C@H](Cc2ccccc2)N(C)C(=O)[C@H](Cc2ccccc2)N(C)C(=O)[C@H](COC(C)(C)C)NC(=O)[C@H](CC(C)C)N(C)C(=O)CN(C)C(=O)[C@H]([C@@H](C)O)NC(=O)[C@H](CC(C)C)N(C)C1=O` (stereo partly drawn) [pd215] ([ξV][NMeF]L[NMeL]T[Sar][NMeL]S(tBu)[NMeF][NMeF]D-Piperidide; lactam N-11) it is 1.2 ×10⁻⁶ cm/s. On the same count and under the same terms, the result for `CC[C@@H]1NC(=O)[C@H](CC(C)C)N(C)C(=O)[C@H](Cc2ccccc2)N(C)C(=O)CN(C)C(=O)[C@H](Cc2ccc(C(=O)NS(C)(=O)=O)c(OC)c2)NC(=O)[C@H](CC(C)C)N(C)C(=O)[C@H](C(C)C)NC(=O)[C@H](CC(C)C)N(C)C(=O)CN(C)C(=O)C[C@@H](C(=O)N2CCCCC2)NC(=O)[C@H](CC(C)C)N(C)C1=O` [AP143] ([Sar][NMeL]V[NMeL][Phe(3-OMe,4-CONHMs)][Sar][NMeF][NMeL][Abu][NMeL]D-Piperidide; lactam N-11) reads 0.13 ×10⁻⁶ cm/s; that for `CC[C@H](C)[C@@H]1NC(=O)[C@H](CC(C)C)N(C)C(=O)CCCN(C)C(=O)C[C@@H](C(=O)N2CCCCC2)NC(=O)[C@H](CC(C)C)N(C)C(=O)[C@H](CC(C)C)N(C)C(=O)[C@H]([C@@H](C)O)NC(=O)[C@H](CC(C)C)N(C)C(=O)[C@H](COC(C)(C)C)NC(=O)[C@H](Cc2c[nH]c3ccccc23)N(C)C(=O)[C@H](Cc2ccccc2)N(C)C1=O` [pd107] ([NMeGABA][NMeL]I[NMeF][NMeW]S(tBu)[NMeL]T[NMeL][NMeL]D-Piperidide; lactam N-11), 0.17 ×10⁻⁶ cm/s; that for `CCCCN1CC(=O)N(C)[C@@H](CC(C)C)C(=O)N(C)[C@@H](CC(C)C)C(=O)N[C@@H](COC(C)(C)C)C(=O)N(C)[C@@H](CC(C)C)C(=O)N[C@H](C(=O)N2CCCCC2)CC(=O)N(C)CC(=O)N(C)[C@@H](Cc2cccc(Cl)c2)C(=O)N[C@@H](Cc2ccc(C(=O)NC)c(OC)c2)C(=O)N(C)[C@@H](CC(C)C)C(=O)N[C@@H]([C@@H](C)O)C1=O` [AP33] ([Sar][NMePhe(3-Cl)][Phe(3-OMe,4-CONHMe)][NMeL]T[NBuGly][NMeL][NMeL]S(tBu)[NMeL]D-Piperidide; lactam N-11), 0.61 ×10⁻⁶ cm/s. Turning to `CCCCN1CC(=O)N(C)[C@@H](Cc2ccccc2)C(=O)N[C@@H]([C@@H](C)CC)C(=O)N(C)[C@@H](CC(C)C)C(=O)N[C@@H]([C@@H](C)O)C(=O)N(C)CC(=O)N(C)[C@@H](CCc2ccc(C(=O)NC)c(OC)c2)C(=O)N(C)[C@@H](CC(C)C)C(=O)N[C@@H](COC(C)(C)C)C(=O)N(C)[C@@H](CC(C)C)C(=O)N[C@H](C(=O)N2CCCCC2)CC1=O` [AP232] ([NBuGly][NMeF]I[NMeL]T[Sar][NMeHph(3-OMe-4-CONHMe)][NMeL]S(tBu)[NMeL]D-Piperidide; lactam N-11), the Papp was found to be 2 ×10⁻⁶ cm/s. `CCCN1CC(=O)N(C)[C@@H](CC(C)C)C(=O)N[C@@H](COCCC(C)C)C(=O)N(C)[C@@H](Cc2ccccc2)C(=O)N(C)[C@@H](CC(C)C)C(=O)N[C@H](C(=O)N2CCCCC2)CC(=O)N[C@H](C(C)C)C(=O)N(C)[C@@H](CCc2ccccc2)C(=O)N[C@@H](COCCO)C(=O)N(C)[C@@H](CC(C)C)C(=O)N[C@@H]([C@@H](C)O)C1=O` [Compound A01] ([dV][NMehPhe]S(Ethyl(2-OH))[NMeL]T[NPrGly][NMeL]S(Isopentyl)[NMeF][NMeL]D-Piperidide; lactam N-11) had a Papp of 0.6 ×10⁻⁶ cm/s.

On to `CC[C@H](C)[C@H]1C(=O)N[C@@H]([C@@H](C)O)C(=O)N(C)CC(=O)N(C)[C@@H](CC)C(=O)N[C@H](C(=O)N2CCCCC2)CC(=O)N(C)[C@@H](CC(C)C)C(=O)N[C@@H](Cc2ccc(OC)c(C(=O)NC)c2)C(=O)N(C)[C@@H](CC(C)C)C(=O)N(C)[C@@H](Cc2ccccc2)C(=O)N[C@@H](CC(C)C)C(=O)N(C)[C@@H](CC(C)C)C(=O)N1C` [AP39] ([NMeL][Phe(3-CONHMe,4-OMe)][NMeL][NMeF]L[NMeL][NMeI]T[Sar][NMeAbu]D-Piperidide; lactam N-11), for which the Papp is 0.01 ×10⁻⁶ cm/s. Same read-out and setting: the result for `CC[C@H](C)[C@@H]1NC(=O)[C@H](CC(C)C)N(C)C(=O)CCCN(C)C(=O)C[C@@H](C(=O)N2CCCCC2)NC(=O)[C@H](CC(C)C)N(C)C(=O)[C@H](C)N(C)C(=O)[C@H]([C@@H](C)O)NC(=O)[C@H](CC(C)C)N(C)C(=O)[C@H](Cc2ccc(O)c(F)c2)NC(=O)[C@H](CC(C)C)N(C)C(=O)[C@H](Cc2ccccc2)N(C)C1=O` [pd119] ([NMeGABA][NMeL]I[NMeF][NMeL][Tyr(3-F)][NMeL]T[NMeA][NMeL]D-Piperidide; lactam N-11) reads 0.16 ×10⁻⁶ cm/s. Still for that read-out and setting: the result for `CC[C@H](C)[C@H]1C(=O)N[C@@H]([C@@H](C)O)C(=O)N(C)CC(=O)N(C)[C@@H](CC(C)C)C(=O)N[C@H](C(=O)N2CCCCC2)CC(=O)N(C)[C@@H](C(C)C)C(=O)N[C@@H](CC(C)C)C(=O)N(C)[C@@H](CC(C)C)C(=O)N(C)[C@@H](Cc2ccccc2)C(=O)N[C@@H](COC[C@@H](C)O)C(=O)N(C)[C@@H](Cc2ccccc2)C(=O)N1C` [AP76] ([NMeV]L[NMeL][NMeF]S(Propyl(2R-OH))[NMeF][NMeI]T[Sar][NMeL]D-Piperidide; lactam N-11) reads 0.84 ×10⁻⁶ cm/s.

Broadly, the Papp is the rate of passage across a membrane or cell layer, normalised by area and donor concentration.
